Experimental data as given in PMC6910931, “Converging TLR9 and PI3Kgamma signaling induces sterile inflammation and organ damage” (Scientific Reports, 2019).
Entries after “also recorded” stand apart in the source; their conditions may differ.

Experiments:
[1] = system: C57BL/6 mice; assay: APAP-induced liver injury (DILI) model; assay type: in vivo; details: for reduction in serum ALT levels: AS605240 20 mg/Kg oral 6 and 12 hours after APAP
Procedure: Mice were fasted for 15 hours before oral APAP administration (500 mg/Kg) or vehicle (sterile saline). After 24 hours mice were anesthetized for respiratory mechanics analysis (described below) and then killed for blood (serum), liver, bronchoalveolar lavage fluid (BALF), and lung collection. Alanine aminotransferase (ALT) levels were measured in the serum using an enzyme activity test (Bioclin). The myeloperoxidase activity assay was performed as described before. BALF was performed by washing the lungs twice with 1 mL of PBS 10 mM EDTA with a polyethylene cannula 18 G resulting in a total of 2 mL of lavage. Cells were centrifuged and used for total cell count and differential cell count after Romanowsky staining (Panótico Rápido LB)[59]. Fragments of liver and the left lobe of the lungs were fixed and then sectioned for histological analysis (Haematoxylin and Eosin). For the drug-induced liver injury model, mice were orally treated with AS605240 6 and 12 hours after APAP treatment or with n-Acetylcysteine (NAC) 1 hour before APAP or 6 and 12 hours after APAP treatment. AS605240 was diluted in 0,9% Saline + 0.5% CMC + 0.1% Tween 20 and given in a dose of 20 mg/Kg and NAC was diluted in 0.9% saline and given in a dose of 600 mg/Kg.
Animals were anesthetized with a mixture of Ketamine/Xylazine (200 mg/Kg and 15 mg/Kg, respectively) as indicated by Buxco. Dynamic compliance (mL/cm H2O), lung resistance (cm H2O × s/mL) and Forced Expiratory Volume at 100 ms (FEV100) (mL) were assessed in tracheostomized and mechanically ventilated mice using Forced Manoeuvres Platform (Buxco)[53].
(§1) In this study, female C57BL/6 mice from 8 to 12 weeks of age were used in all experiments except for the chimaera mice. Animals were obtained from the UFMG’s Centro de Bioterismo and kept in the Laboratório de Imunofarmacologia with food and water ad libitum and day/night light cycles. For all investigations, mice were humanely sacrificed using an intra-peritoneal overdose of Ketamine/Xylazine at a dose equivalent to at least five times the dose used for anesthetising the mice. The animal studies presented here were registered and approved by the UFMG’s Comitê de Ética em Utilização Animal (CEUA) No. 191/2010 and 51/2011 and all the procedures were performed in accordance with the guidelines of the Conselho Nacional De Controle De Experimentação Animal’s resolution of Brazilian Ministry of Science, Technology, Innovation and Communication.

[2] = system: C57BL/6 mice; assay: CpG-induced pleurisy model; assay type: in vivo; details: CpG 750 ng/cavity, 12 hours
Procedure: Animals received one single injection of C-class CpG in the pleural cavity with the indicated dose of agonist. At indicated timepoints, mice were anesthetized intraperitoneally with a mixture of Ketamine/Xylazine and then killed with overdose of intravenous anaesthetic (80 mg/Kg and 15 mg/Kg, respectively). Pleural cavity was washed two times with 1 mL of PBS 10 mM EDTA resulting in a total of 2 mL of lavage. Cells were centrifuged and used for total cell count and differential cell count after Romanowsky staining (Panótico Rápido LB). For the pleurisy model, mice were orally treated with AS605240 twice: 1 h prior the CpG injection and then 6 h after CpG, 20 mg/kg diluted in 0,9% Saline + 0.5% CMC + 0.1% Tween 20.
as §1

[3] = APAP 500 mg/Kg, AS605240 20 mg/Kg, vs WT mice

| SMILES | serum ALT levels, therapeutic treatment ([1]; NAC 600 mg/Kg 6 and 12 hours after APAP, 24 h) | serum ALT levels, prophylactic treatment ([1]; NAC 600 mg/Kg 1 hour before APAP, 24 h) | migration of mononuclear cells into the pleural cavity ([2]; AS605240 20 mg/kg oral) | neutrophil recruitment into the pleural cavity ([2]; AS605240 20 mg/kg oral) | total leukocytes recruited into the pleural cavity ([2]; AS605240 20 mg/kg oral 1 h prior and 6 h after CpG, vs untreated WT) | lung remote damage (histological score of lung) ([1]; APAP 500 mg/Kg, AS605240 20 mg/Kg) | reduction in serum ALT levels ([1]; APAP 500 mg/Kg, 24 h) | reduction in serum ALT levels ([1]; APAP 500 mg/Kg, 24 h, listed as AS650240) | ALT levels in the serum [1, 3] | MPO levels in the liver [1, 3] | areas of necrotic tissue in the liver [1, 3] |
| --- | --- | --- | --- | --- | --- | --- | --- | --- | --- | --- | --- |
| CC(=O)N[C@@H](CS)C(=O)O [NAC, N-acetyl-cysteine] | not able to reduce ALT levels; also recorded: no impact | completely abrogated the rise of ALT levels | – | – | – | – | – | – | – | – | – |
| O=C1NC(=O)/C(=C\c2ccc3nccnc3c2)S1 [AS605240] | – | – | lower effect | reduced neutrophil recruitment | less leukocytes recruited into the pleural cavity | reduce lung remote damage | approximately 50% | 50% | lower levels of ALT in the serum | lower MPO levels in the liver | less areas of necrotic tissue |
